This is an account of results in patent publication US20090055940A1, “ZEBRAFISH MODEL OF MLL LEUKEMOGENESIS” (priority 2006, published 2009).

In data set [1] the test system is zebrafish mll mRNA (exon 2-intron 2 splice junction). In words: RT-PCR of zebrafish mll transcript splicing after morpholino knockdown. As to conditions: embryos injected at 1-2 cell stage with 16 ng, products sequenced. The data set is classed as in vivo. The procedure:
(§1) A detailed characterization of the role of wild-type mll in the development of the zebrafish hematopoietic system was also performed. The morpholino knockdown strategy (Paffett-Lugassy et al. (2005) Methods Mol. Med., 105:171-98) was employed to characterize the phenotype of loss of mll and determine whether zebrafish mll depletion is associated with a phenotype resembling that in mammals. […] The construct was obtained from Gene Tools, LLC (Philomath, Oreg.). Target mRNA sequence was 5′-[…]gtaaacaaattctctaaattattgt-3′ (SEQ ID NO: 38; Exon 2 is capitalized; intron 2 is lower case; underline indicates 25-base sequence encompassed by morpholino). The MO E2I2 sequence was 5′-tagagaatttgtttacCTATTGACG-3′ (SEQ ID NO: 39). The normal transcript splicing is shown by the grey lines in FIG. 11A. The aberrant splicing of exon 1 to exon 3 is shown by the black lines in FIG. 11A and the thick black line in FIG. 11A indicates a second form of aberrant splicing due to failure to splice out intron 2. A 2 mM (16 ng/nl) MO E2I2 stock solution was prepared in dH2O and diluted in Danieau Solution to the desired concentration.
Wild type male and female adults were bred, fertilized eggs collected, and 100 embryos at the 1-2 cell stage were injected with 16 ng of MO E2I2. […]

The subject of data set [2] is zebrafish embryos. In words: Phenotype of zebrafish embryos after mll depletion (DIC microscopy of live embryos). The data set is classed as in vivo. As for the experimental part:
as §1
Wild type male and female adults were bred, fertilized eggs collected, and 100 embryos at the 1-2 cell stage were injected with 16 ng of MO E2I2. Control uninjected embryos (n=100) and injected embryos were raised in petri dishes in E3 embryo medium (Paffett-Lugassy et al. (2005) Methods Mol. Med., 105:171-98) to the desired age. PTU (1-phenyl-2-thiourea) was applied at 24 hpf as described (Herbomel et al. (2005) Methods Mol. Med., 105:199-214) to inhibit melanin synthesis. To harvest embryos for RNA, 20 embryos were collected in 1.5 ml eppendorf tubes, E3/PTU was removed, embryos were anesthetized with tricaine, tricaine was removed, 100% methanol was added and tubes were placed at −20° C. RNA was prepared using RNeasy (Qiagen) and RT-PCR was performed using SuperScript III One Step kit (Invitrogen) with sense and antisense primers 5′-[…]-3′ (SEQ ID NO: 40) and 5′-[…]-3′ (SEQ ID NO: 41). Knockdown of properly spliced transcript and production of two aberrant transcripts shown in the schematics of FIG. 11B was confirmed by sequencing the products.
DIC images of representative live embryos were taken using Leica DMRBE microscope with 4× objective and captured using Image Pro. […] By 48 hpf, erythroid cells are seen in heart/ventral anterior yolk sac of control (filled black arrow in FIG. 11C). In contrast, erythroid cells are barely visible in morphant (unfilled black arrow), and morphant has smaller eyes (arrow) and persistent hindbrain abnormality (arrow) (FIG. 11C).

Setting [3] is: 48 hpf, 16 ng injected, vs un-injected control embryos.

Entries after “also recorded” stand apart in the source; their conditions may differ.

With “5′-tagagaatttgtttacCTATTGACG-3′ (antisense TAGAGAATTTGTTTACCTATTGACG; all phosphorodiamidate morpholino (PMO)) [MO E2I2]”, the “effect on mll transcript splicing” value in data set [1] is “effectively disrupted; also recorded: inhibited proper splicing and resulted in production of two different aberrantly spliced mll mRNAs and reduction of the normal transcript”. Besides, the “morphant phenotype by 28 hpf” value in data set [2] (28 hpf, 16 ng injected, vs un-injected control embryos) was “aberrant protrusion at the tip of the head and enlarged hindbrain ventricle”. In addition, in data set [2] (setting [3]), the “erythroid cells in the heart and at the ventral yolk sac by 48 hpf” value is reported as “substantially less erythroid cells”; the “other morphant features (eyes, hindbrain)” value was “smaller eyes and a prominent hindbrain abnormality”. Besides, the “viability of morphant embryos” value in data set [2] (embryos injected with 16 ng at 1-2 cell stage) is on record as “viable”. Further, the “embryos exhibiting a phenotype that included hematopoietic and neuronal defects, small size, and delayed development” value in data set [2] (of the 100 embryos injected with 16 ng at 1-2 cell stage) is given as “Approximately 60%”.
